These results are taken from US20040152727A1, “Novel use” (priority 2001, published 2004).

Marks after values point to notes of the source that are not given here.

The subject of assay [1] is rats. Nature of the assay: rat gastric emptying, phenol red method. The format is in vivo. As to conditions: for % GASTRIC EMPTYING: rat, oral.
The test system of assay [2] is guinea-pig isolated colon. Nature of the assay: stretch-induced reflex activity in guinea-pig isolated colon. The following applies: 250 nM applied for 30-45 min; 6, 12 or 20 g weights; greater at higher distension. The source says:
For reflex studies, 5-7 cm lengths of colon were suspended in warmed, oxygenated physiological saline, so that an 8 mm metal bar could be inserted into the lumen and connected, via a thread passing through the intestinal wall, to a pulley system which allowed different weights to pull on the bar and distend the intestine. Force transducers were attached to the wall of the colon via small wire hooks, 5 mm either side of the distending bar. Colonic wall distension using 6, 12 or 20 g weights evoked rhythmic contractions oral to the distension and a small relaxation on the anal side. Application of 12 and 20 g weights evoked similar patterns of activity and although the small relaxation on the anal side of the distension seemed more apparent, the oral excitatory response was not different from the effects of the 6 g weight.

The next assay deals with conscious rats. As to the kind of experiment: colo-rectal distension in conscious rats (intestinal nociception). The format is in vivo, rat.
Another assay concerns the target T1, rat NK-3 receptor (Rattus norvegicus, UniProt P16177).
T1 sequence (P16177 1-452): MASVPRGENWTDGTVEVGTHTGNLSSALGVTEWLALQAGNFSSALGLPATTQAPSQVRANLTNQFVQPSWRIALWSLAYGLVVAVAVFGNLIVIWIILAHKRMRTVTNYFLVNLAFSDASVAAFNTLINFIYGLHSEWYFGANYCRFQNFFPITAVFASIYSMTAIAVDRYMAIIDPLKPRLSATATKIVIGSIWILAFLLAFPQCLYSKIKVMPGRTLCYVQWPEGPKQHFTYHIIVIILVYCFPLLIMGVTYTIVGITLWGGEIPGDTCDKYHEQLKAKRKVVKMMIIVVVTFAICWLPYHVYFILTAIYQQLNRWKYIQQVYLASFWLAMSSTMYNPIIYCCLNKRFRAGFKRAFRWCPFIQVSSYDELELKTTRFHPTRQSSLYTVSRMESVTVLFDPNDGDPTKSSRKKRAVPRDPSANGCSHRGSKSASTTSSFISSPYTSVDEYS
Nature of the assay: affinity for the rat NK-3 receptor. Format: binding. The following applies: relative to its higher affinity for the human or guinea-pig variants.

Assay [3] relates to guinea-pig enteric neurones. As to the kind of experiment: slow EPSP in guinea-pig enteric neurones. The following applies: 0.1 microM. The format is cell-based. On the procedure:
The slowEPSP was elicited by high frequency (20 Hz) electrical stimulation for 1 s, applied to a circumferential internodal strand connecting to the ganglion. […] It was perfused continuously and the slowEPSP was tested at various intervals. In all four neurons there was a decrease of peak amplitude of depolarisation of over 50% when compared with baseline, once the drug had circulated for at least 30 minutes.

In assay [4] the test system is rats. Nature of the assay: small intestinal transit in normal, non-sensitised animals. The format is in vivo, rat. As to conditions: 15 mg/kg po.
For assay [5], the system named is rats. Nature of the assay: egg-albumin sensitized increase in rat small intestinal transit. Format: in vivo. As to conditions: pre-treatment 15 mg/kg po.
For assay [6], the system named is rats. As to the kind of experiment: gastrointestinal motility in rats, charcoal meal test. The format is in vivo, rat. The following applies: for effect on gastrointestinal motility in the rat: charcoal meal test; for % CHANGE FROM VEHICLE-TREATED ANIMALS / GROUP MEAN DISTANCE TRAVELLED BY CHARCOAL AS % OF TOTAL GUT LENGTH ± SD: rat, oral. The source says: Thus, the distance travelled by the charcoal meal in each Compound (I)-treated group was similar to the vehicle-treated group at each tested dose.

As to `CC[C@H](NC(=O)c1c(O)c(-c2ccccc2)nc2ccccc12)c1ccccc1` [Compound (I), (S)-N-(α-ethylbenzyl)-3-hydroxy-2-phenylquinoline-4-carboxamide], the “effect on rat gastric emptying” value in the assay with rats [1] (oral doses of 5, 15 and 50 mg/kg) is on record as “no marked or statistically significant effects”. The “% GASTRIC EMPTYING” value is on record as 55.2% in the assay on rats [1] (5 mg/kg), 50.7% with rats [1] (15 mg/kg) and 62.4% in the assay with rats [1] (50 mg/kg). Moreover, the “effect on reflexes evoked by colonic wall distension” value in assay [2] is on record as “reduced the effects of distension”. Further, the “antinociceptive effect during colo-rectal distension” value in the assay on conscious rats (10 mg/kg po) was “without anti-nociceptive activity”; in the assay on conscious rats (30 mg/kg po) it was “statistically significant only at the highest distension pressure”; in the assay with conscious rats (50 mg/kg po, 30, 45 and 60 mmHg distension pressures), “significant antinociceptive effect”. Further, in the assay with conscious rats (50 mg/kg po), the “effect on colo-rectal tone” value is reported as “without affecting colo-rectal tone”. In addition, on rat NK-3 receptor, the “affinity for the rat NK-3 receptor” value is given as “low affinity”. Further, the “decrease of peak amplitude of depolarisation of slowEPSP compared with baseline” value in assay [3] (circulated at least 30 minutes, all four neurons) is “over 50%”. The “blockade of slowEPSP” value in assay [3] (one neuron) was 100%. For the same compound, the “blockade of slowEPSP based on the amplitude of depolarisation” value in assay [3] (the other three neurons) is 60-80%. Besides, the “effect on small intestinal transit” value with rats [4] is recorded as “did not significantly affect”. Further, the “effect on increased transit after egg-albumin sensitisation” value in the assay on rats [5] is given as “greatly inhibited”. Moreover, in the assay on rats [6] (oral, 5, 15 and 50 mg/kg), the “effect on gastrointestinal motility in the rat” value is on record as “no marked or statistically significant effect”. In addition, the figures for the “% CHANGE FROM VEHICLE-TREATED ANIMALS” value in the assay with rats [6] (5 mg/kg), with rats [6] (15 mg/kg) and in the assay on rats [6] (50 mg/kg) were −11.5%, −1.7% and −4.9%, respectively. Moreover, the “GROUP MEAN DISTANCE TRAVELLED BY CHARCOAL AS % OF TOTAL GUT LENGTH ± SD” value in the assay with rats [6] (5 mg/kg) was found to be 46.9 ± 5.3%; with rats [6] (15 mg/kg), 52.1 ± 7.1%; in the assay with rats [6] (50 mg/kg), 50.4 ± 8.6%.

For the compound `CN1CC[C@]23c4c5ccc(O)c4O[C@H]2[C@@H](O)C=C[C@H]3[C@H]1C5.O=S(=O)(O)O` [Morphine sulfate, reference compound], in the assay on rats [1] (orally at 20 mg/kg), the “effect on rat gastric emptying” value is “marked and statistically significant decrease”. Further, in the assay on rats [1] (20 mg/kg), the “% GASTRIC EMPTYING” value is reported as 30.8** %. Also, in the assay on rats [6] (oral dose of 10 mg/kg), the “effect on gastrointestinal motility in the rat” value is “marked and statistically significant decrease”. Besides, in the assay on rats [6] (10 mg/kg), the “% CHANGE FROM VEHICLE-TREATED ANIMALS” value is on record as −29.4% and the “GROUP MEAN DISTANCE TRAVELLED BY CHARCOAL AS % OF TOTAL GUT LENGTH ± SD” value was 37.4 ± 12.4%.
